This test has as its target T1, human KSP motor domain (KSP(367H)) (Homo sapiens, UniProt P52732).
T1 construct: were used to amplify the motor domain and the neck linker region; made in house; host or cells: E. coli BL21 (DE3), vector pRSETa
T1 sequence (P52732 1-367): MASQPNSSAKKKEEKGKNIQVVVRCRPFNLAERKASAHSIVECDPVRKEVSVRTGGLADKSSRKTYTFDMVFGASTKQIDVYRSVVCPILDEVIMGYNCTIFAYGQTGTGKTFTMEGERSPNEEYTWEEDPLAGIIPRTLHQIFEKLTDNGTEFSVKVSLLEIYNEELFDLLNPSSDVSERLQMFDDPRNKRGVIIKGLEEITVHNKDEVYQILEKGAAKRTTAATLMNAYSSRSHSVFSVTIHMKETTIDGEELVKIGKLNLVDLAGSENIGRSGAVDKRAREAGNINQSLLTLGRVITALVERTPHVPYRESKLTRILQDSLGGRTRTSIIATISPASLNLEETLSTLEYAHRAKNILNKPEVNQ
Put plainly: Kinesin ATPase in vitro assay. It counts as biochemical. As to conditions: kinesin motor domain incubated with microtubules, 1 mM ATP and compound at 23° C.; free phosphate by quinaldine red/ammonium molybdate, absorbance 540 nm. The source says: I. Kinesin ATPase In Vitro Assay
Cloning and Expression of Human Poly-Histidine Tagged KSP Motor Domain (KSP(367H))
Plasmids for the expression of the human KSP motor domain construct were cloned by PCR using a pBluescript full length human KSP construct (Blangy et al., Cell, vol. 83, pp 1159-1169, 1995) as a template. The N-terminal primer 5′-[…] (SEQ.ID.NO.: 1) and the C-terminal primer 5′-[…] […] (SEQ.ID.NO.: 2)were used to amplify the motor domain and the neck linker region. The PCR products were digested with AseI and XhoI, ligated into the NdeI/XhoI digestion product of pRSETa (Invitrogen) and transformed into E. coli BL21 (DE3).
Cells were grown at 37° C. to an OD600 of 0.5. […]
The kinesin motor domain is incubated with microtubules, 1 mM ATP (1:1 MgCl2: Na-ATP), and compound at 23° C. in buffer containing 80 mM K-HEPES (pH 7.0), 1 mM EGTA, 1 mM DTT, 1 mM MgCl2, and 50 mM KCl. […] Free phosphate from the ATP hydrolysis reaction is measured via a quinaldine red/ammonium molybdate assay by adding 150 μl of quench C buffer containing a 2:1 ratio of quench A:quench B. Quench A contains 0.1 mg/ml quinaldine red and 0.14% polyvinyl alcohol; quench B contains 12.3 mM ammonium molybdate tetrahydrate in 1.15 M sulfuric acid. The reaction is incubated for 10 minutes at 23° C., and the absorbance of the phospho-molybdate complex is measured at 540 nm.

Regarding `CC(=O)N1N=C(c2cc(F)ccc2F)CC1(CC[Si](C)(C)O)c1ccccc1` (centres unmarked) [Compound 1-5, {2-[1-acetyl-3-(2,5-difluorophenyl)-5-phenyl-4,5-dihydro-1H-pyrazol-5-yl]ethyl}(dimethyl)silanol], the IC50 is at most 50 µM. The figure for `CC(=O)N1CCN(CCC[C@@]2(c3ccccc3)CC(c3cc([Si](C)(C)C)ccc3F)=NN2C(C)=O)CC1` [Compound 3-8, 1-acetyl-4-(3-{(5S)-1-acetyl-3-[2-fluoro-5-(trimethylsilyl)phenyl]-5-phenyl-4,5-dihydro-1H-pyrazol-5-yl}propyl)piperazine] is at most 50 µM.

(Values after patent publication US7625936B2, “Mitotic kinesin inhibitors” (Merck & Co. Inc., priority 2005, dated 2009).)
